#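 Method: 48-hour compound exposure of cells in 96-well plates, five concentrations, linear interpolation of endpoints. GI50 marks 50% less growth. TGI: total growth inhibition.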
# Experiments:
# Assay in all cases: NCI-60 cell line screen, 48 h
# OVCAR-8 ovarian = tested on: OVCAR-8 ovarian
# UACC-62 melanoma = tested on: UACC-62 melanoma
# K-562 leukemia = tested on: K-562 leukemia
# HCT-15 colon = tested on: HCT-15 colon
# T-47D breast = tested on: T-47D breast
# NCI-H23 lung = tested on: NCI-H23 lung
# OVCAR-5 ovarian = tested on: OVCAR-5 ovarian
# KM12 colon = tested on: KM12 colon
# SF-268 CNS = tested on: SF-268 CNS
# SN12C renal = tested on: SN12C renal
# A549 NSCLC = tested on: A549 NSCLC
# NCI/ADR-RES ovarian = tested on: NCI/ADR-RES ovarian
# OVCAR-3 ovarian = tested on: OVCAR-3 ovarian
# HCC-2998 colon = tested on: HCC-2998 colon
# UACC-257 melanoma = tested on: UACC-257 melanoma
# HCT-116 colon = tested on: HCT-116 colon
# HOP-92 NSCLC = tested on: HOP-92 NSCLC
# A498 renal = tested on: A498 renal
# SF-539 CNS = tested on: SF-539 CNS
# MALME-3M melanoma = tested on: MALME-3M melanoma
# NCI-H226 lung = tested on: NCI-H226 lung
# HOP-62 NSCLC = tested on: HOP-62 NSCLC
# HS 578T breast = tested on: HS 578T breast
# MDA-MB-435 = tested on: MDA-MB-435
# HL-60(TB) leukemia = tested on: HL-60(TB) leukemia
# HT29 colon = tested on: HT29 colon
# DU-145 prostate = tested on: DU-145 prostate
# NCI-H522 lung = tested on: NCI-H522 lung
# CAKI-1 renal = tested on: CAKI-1 renal
# SNB-75 CNS = tested on: SNB-75 CNS
# NCI-H460 lung = tested on: NCI-H460 lung
# SK-OV-3 ovarian = tested on: SK-OV-3 ovarian
# RPMI-8226 leukemia = tested on: RPMI-8226 leukemia
# OVCAR-4 ovarian = tested on: OVCAR-4 ovarian
# UO-31 renal = tested on: UO-31 renal
# IGROV1 ovarian = tested on: IGROV1 ovarian
# CCRF-CEM leukemia = tested on: CCRF-CEM leukemia
# U251 CNS = tested on: U251 CNS
# EKVX NSCLC = tested on: EKVX NSCLC
# 786-0 renal = tested on: 786-0 renal
# PC-3 prostate = tested on: PC-3 prostate
# COLO 205 colon = tested on: COLO 205 colon
# RXF 393 renal = tested on: RXF 393 renal
# SK-MEL-28 melanoma = tested on: SK-MEL-28 melanoma
# SW-620 colon = tested on: SW-620 colon
# SK-MEL-5 melanoma = tested on: SK-MEL-5 melanoma
# LOX IMVI melanoma = tested on: LOX IMVI melanoma
# MCF7 breast = tested on: MCF7 breast
# SNB-19 CNS = tested on: SNB-19 CNS
# BT-549 breast = tested on: BT-549 breast
# SR leukemia = tested on: SR leukemia
# SF-295 CNS = tested on: SF-295 CNS
# SK-MEL-2 melanoma = tested on: SK-MEL-2 melanoma
# M14 melanoma = tested on: M14 melanoma
# TK-10 renal = tested on: TK-10 renal
# MDA-MB-231 breast = tested on: MDA-MB-231 breast
# ACHN renal = tested on: ACHN renal
smiles,measurement,setting,value
COc1ccc(/C=C2\C=C(c3ccccc3)N(CCc3ccccc3)C2=O)cc1OC,GI50,OVCAR-8 ovarian,6.09 µM
same,TGI,OVCAR-8 ovarian,22.5 µM
same,GI50,UACC-62 melanoma,6.01 µM
same,TGI,UACC-62 melanoma,40.9 µM
same,GI50,K-562 leukemia,23.9 µM
same,TGI,K-562 leukemia,> 100 µM
same,GI50,HCT-15 colon,11.1 µM
same,TGI,HCT-15 colon,> 100 µM
same,GI50,T-47D breast,3.2 µM
same,TGI,T-47D breast,28.1 µM
same,GI50,NCI-H23 lung,17 µM
same,TGI,NCI-H23 lung,> 100 µM
same,GI50,OVCAR-5 ovarian,6.37 µM
same,TGI,OVCAR-5 ovarian,73.1 µM
same,GI50,KM12 colon,22.2 µM
same,TGI,KM12 colon,> 100 µM
same,GI50,SF-268 CNS,8.18 µM
same,TGI,SF-268 CNS,26.5 µM
same,GI50,SN12C renal,4.88 µM
same,TGI,SN12C renal,21.8 µM
same,GI50,A549 NSCLC,5.06 µM
same,TGI,A549 NSCLC,17.7 µM
same,GI50,NCI/ADR-RES ovarian,9.03 µM
same,TGI,NCI/ADR-RES ovarian,68.5 µM
same,GI50,OVCAR-3 ovarian,4.82 µM
same,TGI,OVCAR-3 ovarian,17.8 µM
same,GI50,HCC-2998 colon,12.9 µM
same,TGI,HCC-2998 colon,64.1 µM
same,GI50,UACC-257 melanoma,20.2 µM
same,TGI,UACC-257 melanoma,86.8 µM
same,GI50,HCT-116 colon,3.09 µM
same,TGI,HCT-116 colon,11.6 µM
same,GI50,HOP-92 NSCLC,2.54 µM
same,TGI,HOP-92 NSCLC,8.17 µM
same,GI50,A498 renal,2.25 µM
same,TGI,A498 renal,5.32 µM
same,GI50,SF-539 CNS,6.68 µM
same,TGI,SF-539 CNS,23 µM
same,GI50,MALME-3M melanoma,10.2 µM
same,TGI,MALME-3M melanoma,61.9 µM
same,GI50,NCI-H226 lung,4.6 µM
same,TGI,NCI-H226 lung,30.2 µM
same,GI50,HOP-62 NSCLC,2.72 µM
same,GI50,HS 578T breast,3.66 µM
same,TGI,HS 578T breast,23.4 µM
same,GI50,MDA-MB-435,4.78 µM
same,TGI,MDA-MB-435,> 100 µM
same,GI50,HL-60(TB) leukemia,11.7 µM
same,TGI,HL-60(TB) leukemia,68.6 µM
same,GI50,HT29 colon,8.92 µM
same,TGI,HT29 colon,48.9 µM
same,GI50,DU-145 prostate,13.2 µM
same,TGI,DU-145 prostate,> 100 µM
same,GI50,NCI-H522 lung,9.8 µM
same,TGI,NCI-H522 lung,36 µM
same,GI50,CAKI-1 renal,7.53 µM
same,TGI,CAKI-1 renal,> 100 µM
same,GI50,SNB-75 CNS,1.89 µM
same,TGI,SNB-75 CNS,6.28 µM
same,GI50,NCI-H460 lung,7.34 µM
same,TGI,NCI-H460 lung,30.7 µM
same,GI50,SK-OV-3 ovarian,4.04 µM
same,TGI,SK-OV-3 ovarian,18.8 µM
same,GI50,RPMI-8226 leukemia,18.4 µM
same,TGI,RPMI-8226 leukemia,84.9 µM
same,GI50,OVCAR-4 ovarian,3.15 µM
same,TGI,OVCAR-4 ovarian,87 µM
same,GI50,UO-31 renal,4.35 µM
same,TGI,UO-31 renal,20.6 µM
same,GI50,IGROV1 ovarian,4.93 µM
same,TGI,IGROV1 ovarian,52.1 µM
same,GI50,CCRF-CEM leukemia,35.9 µM
same,TGI,CCRF-CEM leukemia,> 100 µM
same,GI50,U251 CNS,3.2 µM
same,TGI,U251 CNS,9.31 µM
same,GI50,EKVX NSCLC,10.4 µM
same,TGI,EKVX NSCLC,54 µM
same,GI50,786-0 renal,2.14 µM
same,TGI,786-0 renal,5.85 µM
same,GI50,PC-3 prostate,21.1 µM
same,TGI,PC-3 prostate,> 100 µM
same,GI50,COLO 205 colon,17.3 µM
same,TGI,COLO 205 colon,> 100 µM
same,GI50,RXF 393 renal,3.64 µM
same,TGI,RXF 393 renal,15.6 µM
same,GI50,SK-MEL-28 melanoma,6.76 µM
same,TGI,SK-MEL-28 melanoma,68.1 µM
same,GI50,SW-620 colon,13.6 µM
same,TGI,SW-620 colon,> 100 µM
same,GI50,SK-MEL-5 melanoma,9.29 µM
same,TGI,SK-MEL-5 melanoma,94.5 µM
same,GI50,LOX IMVI melanoma,5.94 µM
same,TGI,LOX IMVI melanoma,19 µM
same,GI50,MCF7 breast,4.18 µM
same,TGI,MCF7 breast,57.2 µM
same,GI50,SNB-19 CNS,5.08 µM
same,TGI,SNB-19 CNS,21.5 µM
same,GI50,BT-549 breast,12.4 µM
same,TGI,BT-549 breast,49.9 µM
same,GI50,SR leukemia,11.1 µM
same,TGI,SR leukemia,57.7 µM
same,GI50,SF-295 CNS,5.95 µM
same,TGI,SF-295 CNS,24 µM
same,GI50,SK-MEL-2 melanoma,18.5 µM
same,TGI,SK-MEL-2 melanoma,> 100 µM
same,GI50,M14 melanoma,8.84 µM
same,TGI,M14 melanoma,> 100 µM
same,GI50,TK-10 renal,2.28 µM
same,TGI,TK-10 renal,4.91 µM
same,GI50,MDA-MB-231 breast,4.16 µM
same,TGI,MDA-MB-231 breast,17.9 µM
same,GI50,ACHN renal,3.53 µM
same,TGI,ACHN renal,14 µM

# Source: PubChem BioAssay (NCI)
